Test results from paper PMC8945919 (Biomolecules, 2022).
“Also recorded” adds a separate entry of the source. Where no end group is shown, it is not given here.

Columns and labels:
trypsin [1] = biological target: T1, trypsin (Bos taurus, UniProt P00760); assay: Trypsin digestion of RAD16-I followed by MALDI-TOF; type: in vitro ADME; parameters: key to Peak Presence in MALDI Spectra: peak presence (+); absence (−); settings: for Peak Presence in MALDI Spectra: fragments expected after trypsin digestion of RAD16-I, peptide 100 µM in water (50 µM elsewhere in the source), trypsin 1000:1 peptide:enzyme molar ratio, 0-30 min, untreated and thermally treated (90 °C, 10 min) samples, duplicate
T1 sequence (P00760 24-246): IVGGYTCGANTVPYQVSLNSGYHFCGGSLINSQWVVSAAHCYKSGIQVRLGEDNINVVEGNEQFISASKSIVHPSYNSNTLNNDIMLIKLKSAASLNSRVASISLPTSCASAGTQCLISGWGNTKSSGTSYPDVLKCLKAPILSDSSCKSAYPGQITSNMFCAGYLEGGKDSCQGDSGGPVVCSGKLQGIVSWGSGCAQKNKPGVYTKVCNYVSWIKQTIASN
Experimental: Matrix-assisted laser desorption/ionization time of flight (MALDI-TOF) of trypsin-digested peptide samples was performed on a Bruker Ultraflex mass spectrometer, equipped with a pulsed nitrogen laser (337 nm). The peptide RAD16-I was diluted from a stock solution to a final concentration of 100 µM in water. Trypsin was added in a molar ratio 1000:1 (peptide:enzyme). Peptide samples were incubated with trypsin at 37 °C for 0, 1, 5, 10 and 30 min (performed in duplicate), and boiled in order to inactivate trypsin. Samples were prepared by mixing 0.5 µL of the peptide solution with 1 µL of the matrix solution (0.3 mg/mL, α-cyano-4-hydroxy-cinnamic acid in ethanol/acetone 2:1). The mixture was then spotted on an anchor-chip target (Bruker, Billerica, MA, USA) and allowed to evaporate to dryness at room temperature. Spectra were acquired in positive reflectron mode, using an acceleration voltage of 25 kV. Acquisition was performed in automated mode, using the Autoexecute software (Bruker, Billerica, MA, USA). A total of 1000 spectra, collected in 50-shot series at different positions of the sample spot were averaged for each sample. A mixture of standard peptides of known molecular mass in the range from 750–3500 Da (Bruker) was used for external calibration of the mass spectra.
To evaluate RAD16-I trypsin degradation, we incubated the peptide with trypsin with or without the previous denaturation step (incubation at 90 °C for 10 min). Thus, we incubated the RAD16-I samples with trypsin at 37 °C for different periods of time, and at each timepoint we mixed the reaction product with the α-cyano-4-hydroxy-cinnamic acid matrix and let the sample dry. Finally, samples were analyzed by MALDI. […] Furthermore, small peaks with m/z 1642 and 1558 could be detected, which may correspond to the peptide chain without one amino acid residue, an alanine and an arginine, respectively. These peptides are most likely impurities from the RAD16-I peptide synthesis.
We next aimed to determine if the structural changes observed by CD after denaturing RAD16-I (Figure 2) had any influence on proteolytic degradation. For that, peptide stock solution was diluted to 50 µM and then denatured or not for 10 min at 90 °C. Then, trypsin was added and incubated at 37 °C for different periods of time. The proteolytic reaction was inactivated by boiling the samples, and samples were finally mixed with the matrix and MALDI spectra were acquired. […] Moreover, no differences between untreated and thermally treated samples were detected.
We hypothesized that these unexpected results were due to an inefficient […] of trypsin when MALDI samples were prepared, in which trypsin was inactivated by boiling the samples. […] In this case, the samples were taken and immediately mixed with the MALDI-TOF matrix and evaporated on the sample holder.

trypsin [2] = assay: trypsin in water, molar ratio 1000:1 (peptide:enzyme); RAD16-I denatured for 10 min at 90 °C before trypsin; settings: 37 °C, up to 30 min
trypsin [3] = assay: trypsin in water, molar ratio 1000:1 (peptide:enzyme); untreated (non-denatured) RAD16-I; settings: 37 °C, up to 30 min
[4] = Thermal stability of secondary structure by circular dichroism; type: physicochemical
Experimental: Circular dichroism studies were performed on a JASCO-810 spectropolarimeter equipped with a Peltier system. RAD16-I samples (commercially available as PuraMatrix^TM, 354250, Corning, Corning, NY, USA) were diluted from a peptide stock solution (1% in water, 5.38 mM) in deionized water to a final concentration of 25, 50 and 75 µM and allowed to equilibrate at 20 or 90 °C for 10 min prior to analysis. CD data were acquired in a range from 195–240 nm at a band width of 1 nm and scan speed of 20 nm/s.
As a self-assembling peptide, RAD16-I is composed of repeating units of hydrophilic and hydrophobic amino acids, in which the charged residues alternate positive and negative charges, forming a β-sheet structure in aqueous solutions (Figure 1). This characteristic sequence is the one responsible for the self-assembly of the peptide molecules into a hydrogel, formed by a network of interweaving nanofibers from 10–20 nm in diameter and 50–200 nm in pore size and, thus, the applicability of the material as a scaffold in biomedical applications. Circular dichroism (CD) studies were performed to characterize the RAD16-I peptide structure. As a peptide with a β-sheet secondary structure, RAD16-I circular dichroism spectrum at room temperature (20 °C) presented a minimum molar ellipticity at 218 nm, which represents the β-sheet content, and a maximum of approximately 195 nm, which corresponds to the backbone twist of the peptide in the β-sheet configuration [38]. […] This spectrum was also maintained when the peptide was incubated at 40 °C.

[5] = Thermal denaturation of nanofibers imaged by AFM; type: physicochemical; settings: 100 µM in water, AFM on mica
Experimental: (§1) To image the thermal denaturation of the self-assembling peptide, RAD16-I samples were diluted in water from a stock solution (5.38 mM) to a final concentration of 100 µM. The thermal treatment consisted of subjecting the sample to a 90 °C incubation for 10 min. Then, 1 µL of sample was deposited onto freshly cleaved mica (Grade V5 mica, Structure Probe Inc., 01804-CA, West Chester, PA, USA), rinsed twice with Milli-Q water and observed under the AFM. For RAD16-I degradation experiments, samples were prepared as follows: RAD16-I was diluted in water from a stock solution at a final concentration of 100 µM. For thermal treated samples, a 10 min denaturation step (incubation at 90 °C) was performed prior to the enzymatic degradation. Samples were cooled at room temperature and trypsin (Merck, T1426) was added at a 1:1000 molar ratio (enzyme:peptide). Samples (1 µL) were taken at 10 and 60 min and were deposited onto freshly cleaved mica, rinsed twice with Milli-Q water, air dried and scanned under the AFM.
AFM images were obtained with a silicon-scanning probe (AC240-TS, Asylum Research) with a resonance frequency of 70 KHz, spring constant 2 N/m, tip curvature radius <10 nm and 240 μm length. Images were obtained with a Multimode AFM microscope (Nanoscope IIIa, Digital Instruments, Santa Barbara, CA, USA) operating in TappingMode. […]

trypsin [6] = biological target: T1, trypsin; assay: Trypsin degradation of RAD16-I nanofibers imaged by AFM; type: in vitro ADME; settings: RAD16-I 100 µM in water, AFM on mica
Experimental: as §1
AFM images were obtained with a silicon-scanning probe (AC240-TS, Asylum Research) with a resonance frequency of 70 KHz, spring constant 2 N/m, tip curvature radius <10 nm and 240 μm length. Images were obtained with a Multimode AFM microscope (Nanoscope IIIa, Digital Instruments, Santa Barbara, CA, USA) operating in TappingMode. AFM scans were taken at a resolution of 512 × 512 pixels and produced topographic images of samples, whose brightness of features increased as a function of height. Typical scanning parameters were as follows: tapping frequency 75 kHz, RMS amplitude before engagement 1–1.5 V, setpoint 0.7–1 V, integral and proportional gains from 0.3–0.6 and 0.4–0.6, respectively, and scan rate 1.51 Hz.
Because MALDI spectra results indicated peptide proteolysis upon trypsin treatment (Figure 4), we expected to detect structural changes in the peptide using AFM analysis. RAD16-I samples incubated with trypsin were taken at 10 and 60 min and directly spotted into freshly cleaved mica. Then the mica was rinsed with deionized water, dried and observed under the AFM. […]

**Q.** Which “Peak Presence in MALDI Spectra” value (trypsin [1]; 37 °C, MALDI-TOF) does the source give for “ADAR [theoretical trypsin digestion fragment of RAD16-I]” here?
**A.** +

**Q.** Which “Peak Presence in MALDI Spectra” value (trypsin [1]; 37 °C, MALDI-TOF) does the source give for “ADARADA-NH2 [theoretical trypsin digestion fragment of RAD16-I]” here?
**A.** +

**Q.** With “ADARADAR [theoretical trypsin digestion fragment of RAD16-I]” as the substance, how does the “Peak Presence in MALDI Spectra” value (trypsin [1]; 37 °C, MALDI-TOF) read?
**A.** +

**Q.** For “ADARADARADA-NH2 [theoretical trypsin digestion fragment of RAD16-I]”, which “Peak Presence in MALDI Spectra” value (trypsin [1]; 37 °C, MALDI-TOF) is on record?
**A.** +

**Q.** For “ADARADARADAR [theoretical trypsin digestion fragment of RAD16-I]”, which “Peak Presence in MALDI Spectra” value (trypsin [1]; 37 °C, MALDI-TOF) is on record?
**A.** +

**Q.** With “ADARADARADARADA-NH2 [theoretical trypsin digestion fragment of RAD16-I]” as the substance, how does the “Peak Presence in MALDI Spectra” value (trypsin [1]; 37 °C, MALDI-TOF) read?
**A.** −

**Q.** With “AcN-RADAR [theoretical trypsin digestion fragment of RAD16-I]” as the substance, how does the “Peak Presence in MALDI Spectra” value (trypsin [1]; 37 °C, MALDI-TOF) read?
**A.** +

**Q.** With “AcN-RADARADAR [theoretical trypsin digestion fragment of RAD16-I]” as the substance, how does the “Peak Presence in MALDI Spectra” value (trypsin [1]; 37 °C, MALDI-TOF) read?
**A.** +

**Q.** For “AcN-RADARADARADAR [theoretical trypsin digestion fragment of RAD16-I]”, which “Peak Presence in MALDI Spectra” value (trypsin [1]; 37 °C, MALDI-TOF) is on record?
**A.** +

**Q.** With AcN-RADARADARADARADA-CONH2 as the substance, how does the fragment found (trypsin [2]) read?
**A.** AcN-RADARADAR, 1 min; also recorded: AcN-RADARADARADAR, 1 min; also recorded: ADAR, 1 min; also recorded: ADARADARADA-CONH2, 1 min; also recorded: ADARADA-CONH2, 1 min; also recorded: ADARADARADAR, 1 min; also recorded: ADARADAR, 1 min; also recorded: AcN-RADAR, 1 min

**Q.** What about the fragment found (trypsin [3]) of the same substance?
**A.** AcN-RADAR, 1 min; also recorded: AcN-RADARADAR, 1 min; also recorded: AcN-RADARADARADAR, 1 min; also recorded: ADAR, 1 min; also recorded: ADARADARADA-CONH2, 1 min; also recorded: ADARADA-CONH2, 1 min; also recorded: ADARADARADAR, 1 min; also recorded: ADARADAR, 1 min

**Q.** Which “thermal denaturation of concentrated solutions by CD” value ([4]; 5 mg/mL in water, 2.9 mM, incubated at 20 or 90 °C for 10 min, then diluted to 25 µM to record spectra) does the source give for “AcN-RADARADARADARADA-CONH2 [RAD16-I, self-assembling amphiphilic peptide scaffold, commercially available as PuraMatrix (1% in water)]” here?
**A.** thermal denaturalization was not observed

**Q.** What about the “CD spectrum / secondary structure at 20 °C” value ([4]; 25, 50 and 75 µM in deionized water, 20 °C, 10 min equilibration, CD 195-240 nm) of the same substance?
**A.** characteristic β-sheet spectrum

**Q.** What about the “CD β-sheet spectrum at 40 °C” value ([4]; 25, 50 and 75 µM in deionized water, 40 °C) of the same substance?
**A.** maintained

**Q.** And the “CD secondary structure at 90 °C, diluted samples” value ([4]; 25, 50 and 75 µM in deionized water, 90 °C, 10 min)?
**A.** structural transition from β-sheet to random coil

**Q.** What about the “reversibility of the β-sheet to random coil shift” value ([4]; diluted samples after heating at 90 °C, kept at room temperature) of the same substance?
**A.** irreversible at room temperature for at least a week

**Q.** And the “nanofiber network by AFM, thermally treated samples” value ([5]; 90 °C for 10 min)?
**A.** significantly less dense

**Q.** And the “nanofiber structure by AFM, untreated samples” value ([5]; room temperature)?
**A.** dense network of long nanofibers

**Q.** And the “Peak Presence in MALDI Spectra” value (trypsin [1]; 37 °C, MALDI-TOF)?
**A.** +

**Q.** What about the “peak belonging to RAD16-I (m/z 1712) after incubation with trypsin” value (trypsin [1]; peptide 50 µM, trypsin, 37 °C, 1 min or 30 min, reaction stopped by boiling, MALDI-TOF, regardless of incubation time, no difference between untreated and thermally treated) of the same substance?
**A.** significantly reduced

**Q.** What about the “disappearance of RAD16-I peak (m/z 1713) upon trypsin treatment, denatured versus untreated samples” value (trypsin [1]; thermally denatured (90 °C, 10 min) samples compared with untreated, MALDI-TOF, Figure 4h) of the same substance?
**A.** much faster

**Q.** What about the “degradation of the peptide by trypsin (m/z 1713 peak)” value (trypsin [1]; untreated and thermally treated samples, taken and immediately mixed with MALDI-TOF matrix and evaporated (no boiling)) of the same substance?
**A.** very fast

**Q.** And the “nanofibers after trypsin incubation, thermally treated samples, 10 min” value (trypsin [6]; 90 °C 10 min then cooled, trypsin 1:1000 enzyme:peptide, 10 min)?
**A.** only the presence of short fibers was detected

**Q.** And the “nanofibers after trypsin incubation, thermally treated samples, 60 min” value (trypsin [6]; 90 °C 10 min then cooled, trypsin 1:1000 enzyme:peptide, 60 min)?
**A.** most of the fibers had disappeared

**Q.** And the “nanofibers after trypsin incubation, untreated (RT) samples, 10 min to 60 min” value (trypsin [6]; trypsin 1:1000 enzyme:peptide molar ratio)?
**A.** slight change in nanofiber density
